How the values were obtained:
barnyardgrass = experiment: Test C flooded paddy test; assay type: in vivo, Echinochloa crus-galli; settings: for Plant response rating, Barnyardgrass: 500 g ai/ha, visual rating after 12 to 14 days
In short: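 Injury scored visually against controls on a 0 (no effect) to 100 (complete control) scale, 12 to 14 days after treatment in greenhouse. Flooded paddy plants treated at 2-leaf stage; postemergence plants at 1- to 4-leaf stage, 2 to 18 cm tall.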

giant foxtail = experiment: Test C pre-/postemergence herbicide test; assay type: in vivo, Setaria faberi
In short: (§1)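 Emerged plants at the 1- to 4-leaf stage (2–18 cm), or freshly planted seeds, received test chemicals in a non-phytotoxic solvent mixture with surfactant. Response was visually scored against controls after 12 to 14 days in the greenhouse, on a 0 (no effect) to 100 (complete control) scale.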

woolly cupgrass = experiment: Test C pre-/postemergence herbicide test; assay type: in vivo, Eriochloa villosa
In short: as §1

velvetleaf [1] = experiment: Test C pre-/postemergence herbicide test; assay type: in vivo, Abutilon theophrasti; settings: for Plant response rating, Velvetleaf: preemergence
In short: as §1

yellow nutsedge = experiment: Test C pre-/postemergence herbicide test; assay type: in vivo, Cyperus esculentus
In short: as §1

kochia = experiment: Test C pre-/postemergence herbicide test; assay type: in vivo, Kochia scoparia
In short: as §1

soybean = experiment: Test C pre-/postemergence herbicide test; assay type: in vivo, Glycine max
In short: as §1

velvetleaf [2] = experiment: Test A pre-/postemergence herbicide test; assay type: in vivo, Abutilon theophrasti
In short: (§2)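 Both application timings were run together: directed soil spray over freshly planted seeds in sandy loam, and runoff spray onto 2–10 cm seedlings. Evaluation after ~10 days in greenhouse used a 0–100 visual scale versus untreated controls.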

redroot pigweed = experiment: Test A pre-/postemergence herbicide test; assay type: in vivo, Amaranthus retroflexus
In short: as §2

goosegrass = experiment: Test C pre-/postemergence herbicide test; assay type: in vivo, Eleusine indica
In short: as §1

morningglory = experiment: Test C pre-/postemergence herbicide test; assay type: in vivo, Ipomoea coccinea; parameters: key to Plant response rating, Morningglory: 0 = no effect, 100 = complete control
In short: as §1

bermudagrass = experiment: Test C pre-/postemergence herbicide test; assay type: in vivo, Cynodon dactylon
In short: as §1

cocklebur = experiment: Test C pre-/postemergence herbicide test; assay type: in vivo, Xanthium strumarium
In short: as §1

corn = experiment: Test C pre-/postemergence herbicide test; assay type: in vivo, Zea mays
In short: as §1

[3] = 62 g ai/ha, scale 0 to 100 (0 no effect, 100 complete control)
[4] = 250 g ai/ha, scale of 0 to 100, 0 is no effect, 100 is complete control
[5] = scale 0 to 100 (0 no effect, 100 complete control)
[6] = 125 g ai/ha, scale 0 (no effect) to 100 (complete control), visual, 12 to 14 days, preemergence
[7] = 250 g ai/ha, scale 0 to 100 (0 no effect, 100 complete control), visual, 12 to 14 days, preemergence
[8] = 125 g ai/ha, scale 0 (no effect) to 100 (complete control), visual, 12 to 14 days
[9] = Postemergence, 250 g ai/ha, 0 to 100 scale, 0 no effect, 100 complete control
[10] = Postemergence, 1000 g ai/ha, 0 to 100 scale, 0 no effect, 100 complete control
[11] = Preemergence, 1000 g ai/ha, visual rating, 0 to 100 scale (0 no effect, 100 complete control)
[12] = preemergence, 250 g ai/ha, visual injury, 0 to 100 scale (0 no effect, 100 complete control)
[13] = 62 g ai/ha, preemergence, scale 0 to 100
[14] = 250 g ai/ha, scale 0-100, preemergence
[15] = Preemergence, 500 g ai/ha, scale 0 to 100, 0 no effect, 100 complete control
[16] = Postemergence, 500 g ai/ha, 0 to 100 scale, 0 no effect, 100 complete control
[17] = Postemergence, 2000 g ai/ha, 0 to 100 scale, 0 no effect, 100 complete control
[18] = Preemergence, 2000 g ai/ha, visual rating, 0 to 100 scale (0 no effect, 100 complete control)
[19] = preemergence, 500 g ai/ha, visual injury, 0 to 100 scale (0 no effect, 100 complete control)

Question: Which results are given for `CCn1nc(C(C)(C)C)cc1C(=O)Nc1cccc(SC)c1` [Compound 131]?
Answer: Barnyardgrass plant response rating (barnyardgrass; [3]): 0; Barnyardgrass plant response rating (barnyardgrass; 125 g ai/ha, scale of 0 to 100, 0 is no effect, 100 is complete control): 0; Barnyardgrass plant response rating (barnyardgrass; [4]): 10; Plant response rating, Barnyardgrass (barnyardgrass; [5]): 30; Plant response rating (0 = no effect, 100 = complete control), Foxtail, Giant (giant foxtail; 62 g ai/ha, preemergence): 20; Plant response rating, Foxtail, Giant (giant foxtail; [6]): 20; Plant response rating, Foxtail, Giant (giant foxtail; [7]): 45; Plant response rating (0 = no effect, 100 = complete control), Cupgrass, Woolly (woolly cupgrass; 62 g ai/ha, preemergence): 0; Plant response rating, Cupgrass, Woolly (woolly cupgrass; [6]): 0; Plant response rating, Cupgrass, Woolly (woolly cupgrass; [7]): 15; Plant response rating, Velvetleaf (velvetleaf [1]; [8]): 15; Plant response rating, Nutsedge, Yellow (yellow nutsedge; 31 g ai/ha, scale 0 to 100, last section of Table C, preemergence): 0; Plant response rating (0 = no effect, 100 = complete control), Nutsedge, Yellow (yellow nutsedge; 62 g ai/ha, preemergence): 0; Plant response rating, Nutsedge, Yellow (yellow nutsedge; [6]): 0; Plant response rating (0 = no effect, 100 = complete control), Kochia (kochia; 62 g ai/ha, preemergence): 85; Plant response rating, Kochia (kochia; [6]): 85; Plant response rating (0 = no effect, 100 = complete control), Soybean (soybean; 62 g ai/ha, preemergence): 0; Plant response rating, Soybean (soybean; [6]): 0; Velvetleaf plant response rating (velvetleaf [2]; [9]): 15; Plant response rating, Velvetleaf (velvetleaf [2]; [10]): 10; Velvetleaf plant response rating (velvetleaf [2]; [11]): 60; Velvetleaf plant response rating (velvetleaf [2]; [12]): 10; Pigweed plant response rating (redroot pigweed; [9]): 45; Plant response rating, Pigweed (redroot pigweed; [10]): 75; Pigweed plant response rating (redroot pigweed; [11]): 90; Pigweed plant response rating (redroot pigweed; [12]): 40; Plant response rating (0 = no effect, 100 = complete control), Goosegrass (goosegrass; 62 g ai/ha, preemergence): 15; Plant response rating, Goosegrass (goosegrass; [6]): 65; Plant response rating (0 = no effect, 100 = complete control), Morningglory (morningglory; 62 g ai/ha, preemergence): 0; Plant response rating, Morningglory (morningglory; [6]): 0; Plant response rating, Bermudagrass (bermudagrass; 31 g ai/ha, scale 0 to 100, 0 no effect, 100 complete control, last section of Table C (species set of preemergence test)): 0; Plant response rating (0 = no effect, 100 = complete control), Bermudagrass (bermudagrass; 62 g ai/ha, preemergence): 15; Plant response rating, Bermudagrass (bermudagrass; [6]): 90; Plant response rating, Bermudagrass (bermudagrass; [7]): 95; Plant response rating (0 = no effect, 100 = complete control), Cocklebur (cocklebur; 62 g ai/ha, preemergence): 0; Plant response rating, Cocklebur (cocklebur; [6]): 20; Plant response rating, Cocklebur (cocklebur; [7]): 25; Plant response rating (0 = no effect, 100 = complete control), Corn (corn; 62 g ai/ha, preemergence): 0; Plant response rating, Corn (corn; [6]): 0; Plant response rating, Corn (corn; [7]): 0

Question: How did the “Barnyardgrass plant response rating” value (barnyardgrass; [3]) turn out when `C=CCNC(=O)c1cccc(NC(=O)c2sc(C(C)(C)C)nc2CC)c1` [Compound 207] was run?
Answer: 45

Question: What about the “Barnyardgrass plant response rating” value (barnyardgrass; 125 g ai/ha, scale 0 to 100 (0 no effect, 100 complete control)) of the same compound?
Answer: 65

Question: What about the “Barnyardgrass plant response rating” value (barnyardgrass; [4]) of the same compound?
Answer: 75

Question: What about the “Plant response rating, Barnyardgrass” value (barnyardgrass; [5]) of the same compound?
Answer: 85

Question: And the “Plant response rating, Foxtail, Giant” value (giant foxtail; [13])?
Answer: 0

Question: What about the “Plant response rating, Foxtail, Giant” value (giant foxtail; [6]) of the same compound?
Answer: 0

Question: What about the “Plant response rating, Foxtail, Giant” value (giant foxtail; [14]) of the same compound?
Answer: 10

Question: And the “Foxtail, Giant plant response rating” value (giant foxtail; [15])?
Answer: 100

Question: And the “Plant response rating, Cupgrass, Woolly” value (woolly cupgrass; [13])?
Answer: 0

Question: And the “Plant response rating, Cupgrass, Woolly” value (woolly cupgrass; [6])?
Answer: 0

Question: And the “Plant response rating, Cupgrass, Woolly” value (woolly cupgrass; [14])?
Answer: 5

Question: What about the “Cupgrass, Woolly plant response rating” value (woolly cupgrass; [15]) of the same compound?
Answer: 40

Question: What about the “Plant response rating, Velvetleaf” value (velvetleaf [1]; 62 g ai/ha, scale 0 to 100) of the same compound?
Answer: 0

Question: And the “Plant response rating, Velvetleaf” value (velvetleaf [1]; [8])?
Answer: 10

Question: What about the “Plant response rating, Velvetleaf” value (velvetleaf [1]; 250 g ai/ha, scale 0-100) of the same compound?
Answer: 40

Question: What about the “Velvetleaf plant response rating” value (velvetleaf [1]; [15]) of the same compound?
Answer: 60

Question: What about the “Plant response rating, Nutsedge, Yellow” value (yellow nutsedge; [13]) of the same compound?
Answer: 0

Question: What about the “Plant response rating, Nutsedge, Yellow” value (yellow nutsedge; [6]) of the same compound?
Answer: 0

Question: What about the “Plant response rating, Nutsedge, Yellow” value (yellow nutsedge; [14]) of the same compound?
Answer: 20

Question: And the “Nutsedge, Yellow plant response rating” value (yellow nutsedge; [15])?
Answer: 20

Question: And the “Plant response rating, Kochia” value (kochia; [13])?
Answer: 90

Question: What about the “Plant response rating, Kochia” value (kochia; [6]) of the same compound?
Answer: 90

Question: And the “Plant response rating, Kochia” value (kochia; [14])?
Answer: 90

Question: What about the “Kochia plant response rating” value (kochia; [15]) of the same compound?
Answer: 95

Question: What about the “Plant response rating, Soybean” value (soybean; [13]) of the same compound?
Answer: 0

Question: And the “Plant response rating, Soybean” value (soybean; [6])?
Answer: 0

Question: What about the “Plant response rating, Soybean” value (soybean; [14]) of the same compound?
Answer: 0

Question: What about the “Soybean plant response rating” value (soybean; [15]) of the same compound?
Answer: 0

Question: And the “Velvetleaf plant response rating” value (velvetleaf [2]; [16])?
Answer: 20

Question: And the “Plant response rating, Velvetleaf” value (velvetleaf [2]; [17])?
Answer: 25

Question: What about the “Velvetleaf plant response rating” value (velvetleaf [2]; [18]) of the same compound?
Answer: 100

Question: What about the “Velvetleaf plant response rating” value (velvetleaf [2]; [19]) of the same compound?
Answer: 30

Question: What about the “Pigweed plant response rating” value (redroot pigweed; [16]) of the same compound?
Answer: 30

Question: And the “Plant response rating, Pigweed” value (redroot pigweed; [17])?
Answer: 45

Question: What about the “Pigweed plant response rating” value (redroot pigweed; [18]) of the same compound?
Answer: 100

Question: What about the “Pigweed plant response rating” value (redroot pigweed; [19]) of the same compound?
Answer: 100

Question: And the “Plant response rating, Goosegrass” value (goosegrass; [13])?
Answer: 10

Question: And the “Plant response rating, Goosegrass” value (goosegrass; [6])?
Answer: 60

Question: And the “Plant response rating, Goosegrass” value (goosegrass; [14])?
Answer: 80

Question: And the “Goosegrass plant response rating” value (goosegrass; [15])?
Answer: 100

Question: And the “Plant response rating, Morningglory” value (morningglory; [13])?
Answer: 0

Question: And the “Plant response rating, Morningglory” value (morningglory; [6])?
Answer: 0

Question: And the “Plant response rating, Morningglory” value (morningglory; [14])?
Answer: 0

Question: What about the “Morningglory plant response rating” value (morningglory; [15]) of the same compound?
Answer: 0

Question: And the “Plant response rating, Bermudagrass” value (bermudagrass; 62 g ai/ha, preemergence, scale 0 to 100, 0 no effect, 100 complete control)?
Answer: 50

Question: And the “Plant response rating, Bermudagrass” value (bermudagrass; [6])?
Answer: 80

Question: What about the “Plant response rating, Bermudagrass” value (bermudagrass; [14]) of the same compound?
Answer: 100

Question: What about the “Bermudagrass plant response rating” value (bermudagrass; [15]) of the same compound?
Answer: 100

Question: What about the “Plant response rating, Cocklebur” value (cocklebur; [13]) of the same compound?
Answer: 0

Question: And the “Plant response rating, Cocklebur” value (cocklebur; [6])?
Answer: 0

Question: What about the “Plant response rating, Cocklebur” value (cocklebur; [14]) of the same compound?
Answer: 0

Question: What about the “Cocklebur plant response rating” value (cocklebur; [15]) of the same compound?
Answer: 0

Question: And the “Plant response rating, Corn” value (corn; [13])?
Answer: 0

Question: And the “Plant response rating, Corn” value (corn; [6])?
Answer: 0

Question: What about the “Plant response rating, Corn” value (corn; [14]) of the same compound?
Answer: 5

Question: What about the “Corn plant response rating” value (corn; [15]) of the same compound?
Answer: 20
